± gives the uncertainty stated by the source.
Experiment: xn = mol fraction of the nth substance listed
Conditions: 308.15 K, 101 kPa

CCCCCCCCCCCCCCCC[n+]1ccccc1.[Cl-] + C[C@@H](O)[C@H](N)C(=O)O + O
Conditions	electrical conductivity [S/m]
x2 = 0.0002, x1 = 5.4e-07	0.000209 ± 2e-06
x2 = 0.0002, x1 = 9e-07	0.000279 ± 3e-06
x2 = 0.0002, x1 = 1.62e-06	0.000384 ± 4e-06
x2 = 0.0002, x1 = 2.35e-06	0.000481 ± 5e-06
x2 = 0.0002, x1 = 2.89e-06	0.000615 ± 6e-06
x2 = 0.0002, x1 = 3.79e-06	0.000744 ± 7e-06
x2 = 0.0002, x1 = 4.51e-06	0.000835 ± 8e-06
x2 = 0.0002, x1 = 5.59e-06	0.000986 ± 1e-05
x2 = 0.0002, x1 = 6.67e-06	0.001137 ± 1.1e-05
x2 = 0.0002, x1 = 7.94e-06	0.00127 ± 1.3e-05
x2 = 0.0002, x1 = 9.02e-06	0.001403 ± 1.4e-05
x2 = 0.0002, x1 = 1.01e-05	0.00155 ± 1.6e-05
x2 = 0.0002, x1 = 1.118e-05	0.00168 ± 1.7e-05
x2 = 0.0002, x1 = 1.335e-05	0.00196 ± 2e-05
x2 = 0.0002, x1 = 1.551e-05	0.00219 ± 2.2e-05
x2 = 0.0002, x1 = 1.75e-05	0.00237 ± 2.4e-05
x2 = 0.0002, x1 = 1.966e-05	0.00251 ± 2.5e-05
x2 = 0.0002, x1 = 2.183e-05	0.00264 ± 2.6e-05
x2 = 0.0002, x1 = 2.381e-05	0.00275 ± 2.8e-05
x2 = 0.0002, x1 = 2.58e-05	0.00286 ± 2.9e-05
x2 = 0.0002, x1 = 2.995e-05	0.00304 ± 3e-05
x2 = 0.0002, x1 = 3.391e-05	0.00321 ± 3.2e-05
x2 = 0.0002, x1 = 3.77e-05	0.00335 ± 3.4e-05
x2 = 0.0002, x1 = 4.149e-05	0.0035 ± 3.5e-05
x2 = 0.0002, x1 = 4.528e-05	0.00364 ± 3.6e-05
x2 = 0.0002, x1 = 4.889e-05	0.00376 ± 3.8e-05
x2 = 0.0002, x1 = 5.069e-05	0.00382 ± 3.8e-05
x2 = 0.0002, x1 = 5.953e-05	0.0041 ± 4.1e-05
x2 = 0.0002, x1 = 6.801e-05	0.00437 ± 4.4e-05
x2 = 0.0002, x1 = 7.612e-05	0.00458 ± 4.6e-05
x2 = 0.0002, x1 = 8.388e-05	0.00481 ± 4.8e-05
x2 = 0.0002, x1 = 9.146e-05	0.00499 ± 5e-05
x2 = 0.0002, x1 = 9.849e-05	0.00517 ± 5.2e-05
x2 = 0.0002, x1 = 0.0001055	0.00533 ± 5.3e-05
x2 = 0.0002, x1 = 0.000112	0.0055 ± 5.5e-05
x2 = 0.0002, x1 = 0.0001185	0.00565 ± 5.7e-05
x2 = 0.0009181, x1 = 2.391e-05	0.00276 ± 2.8e-05
x2 = 0.0009181, x1 = 2.608e-05	0.00285 ± 2.9e-05
x2 = 0.0009181, x1 = 3.007e-05	0.00304 ± 3e-05
x2 = 0.0009181, x1 = 3.405e-05	0.0032 ± 3.2e-05
x2 = 0.0009181, x1 = 3.804e-05	0.00337 ± 3.4e-05
x2 = 0.0009181, x1 = 4.184e-05	0.00351 ± 3.5e-05
x2 = 0.0009181, x1 = 4.564e-05	0.00365 ± 3.7e-05
x2 = 0.0009181, x1 = 4.926e-05	0.00379 ± 3.8e-05
x2 = 0.0009181, x1 = 5.108e-05	0.00385 ± 3.9e-05
x2 = 0.0009181, x1 = 5.995e-05	0.00413 ± 4.1e-05
x2 = 0.0009181, x1 = 6.846e-05	0.00439 ± 4.4e-05
x2 = 0.0009181, x1 = 7.661e-05	0.00463 ± 4.6e-05
x2 = 0.0009181, x1 = 8.44e-05	0.00485 ± 4.9e-05
x2 = 0.0009181, x1 = 9.2e-05	0.00505 ± 5.1e-05
x2 = 0.0009181, x1 = 9.907e-05	0.00523 ± 5.2e-05
x2 = 0.0009181, x1 = 0.0001061	0.0054 ± 5.4e-05
x2 = 0.0009181, x1 = 0.0001128	0.00556 ± 5.6e-05
x2 = 0.0009181, x1 = 0.0001192	0.00571 ± 5.7e-05
x2 = 0.0009182, x1 = 5.4e-07	0.000316 ± 3e-06
x2 = 0.0009182, x1 = 9.1e-07	0.000383 ± 4e-06
x2 = 0.0009182, x1 = 1.63e-06	0.00045 ± 5e-06
x2 = 0.0009182, x1 = 2.35e-06	0.000543 ± 5e-06
x2 = 0.0009182, x1 = 2.9e-06	0.000651 ± 7e-06
x2 = 0.0009182, x1 = 3.8e-06	0.000745 ± 7e-06
x2 = 0.0009182, x1 = 4.53e-06	0.000847 ± 8e-06
x2 = 0.0009182, x1 = 5.61e-06	0.00102 ± 1e-05
x2 = 0.0009182, x1 = 6.88e-06	0.001307 ± 1.3e-05
x2 = 0.0009182, x1 = 7.97e-06	0.001432 ± 1.4e-05
x2 = 0.0009182, x1 = 9.06e-06	0.00156 ± 1.6e-05
x2 = 0.0009182, x1 = 1.014e-05	0.00169 ± 1.7e-05
x2 = 0.0009182, x1 = 1.123e-05	0.001816 ± 1.8e-05
x2 = 0.0009182, x1 = 1.34e-05	0.00202 ± 2e-05
x2 = 0.0009182, x1 = 1.558e-05	0.00226 ± 2.3e-05
x2 = 0.0009182, x1 = 1.775e-05	0.0024 ± 2.4e-05
x2 = 0.0009182, x1 = 1.974e-05	0.00254 ± 2.5e-05
x2 = 0.0009182, x1 = 2.192e-05	0.00266 ± 2.7e-05

— the CheMixHub ionic liquid set
